Experimental data as given in ChEMBL document CHEMBL2177009, “The use of novel C-methylated spermidine derivatives to investigate the regulation of polyamine metabolism” (J Med Chem, 2011).
Activity calls are given as the source filed them. No cut-off for these calls is given here.

Experiments:
[1] = target: Diamine acetyltransferase 1 (Homo sapiens) (UniProt P21673); experiment: Activity of SSAT in human DU145 cells assessed per ug DNA at 100 uM after 72 hrs in presence of serum amine oxidase inhibitor aminoguanidine (RVb = 62 +/- 4 pmol/h per ug DNA); format: cell-based; conditions: DU-145
Chain of Diamine acetyltransferase 1 (Homo sapiens) (P21673 whole entry): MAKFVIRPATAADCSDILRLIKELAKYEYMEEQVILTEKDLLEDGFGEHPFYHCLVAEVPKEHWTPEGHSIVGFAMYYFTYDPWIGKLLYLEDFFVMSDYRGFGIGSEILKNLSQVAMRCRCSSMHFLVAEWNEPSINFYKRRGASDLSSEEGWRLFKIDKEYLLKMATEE

[2] = target: Spermine oxidase (Homo sapiens) (UniProt Q9NWM0); experiment: Activity of spermine oxidase in human DU145 cells assessed per ug DNA at 100 uM after 24 hrs in presence of serum amine oxidase inhibitor aminoguanidine (RVb = 493 +/- 22 pmol/h per ug DNA); format: cell-based; conditions: DU-145
Chain of Spermine oxidase (Homo sapiens) (Q9NWM0 whole entry): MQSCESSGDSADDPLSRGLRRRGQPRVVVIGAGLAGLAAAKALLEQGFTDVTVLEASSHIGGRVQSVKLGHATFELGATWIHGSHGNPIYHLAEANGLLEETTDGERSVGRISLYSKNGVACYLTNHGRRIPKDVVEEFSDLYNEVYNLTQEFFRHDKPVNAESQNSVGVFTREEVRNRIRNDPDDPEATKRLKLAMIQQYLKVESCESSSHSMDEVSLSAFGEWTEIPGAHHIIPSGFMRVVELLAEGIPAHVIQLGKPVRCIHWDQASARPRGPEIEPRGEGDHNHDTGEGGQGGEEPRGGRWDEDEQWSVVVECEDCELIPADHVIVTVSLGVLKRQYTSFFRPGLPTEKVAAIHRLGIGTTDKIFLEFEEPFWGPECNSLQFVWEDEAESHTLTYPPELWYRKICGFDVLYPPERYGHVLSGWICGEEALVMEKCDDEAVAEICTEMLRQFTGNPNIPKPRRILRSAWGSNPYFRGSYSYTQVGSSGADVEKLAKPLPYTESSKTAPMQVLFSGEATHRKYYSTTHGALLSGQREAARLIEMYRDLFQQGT

[3] = target: T1, S-adenosylmethionine decarboxylase proenzyme (Homo sapiens) (UniProt P17707); experiment: Activity of S-adenosyl-L-methionine decarboxylase in human DU145 cells assessed per ug DNA at 100 uM after 72 hrs in presence of serum amine oxidase inhibitor aminoguanidine (RVb = 72 +/- 6 pmol/h per ug DNA); format: cell-based; conditions: DU-145
T1 sequence (whole entry): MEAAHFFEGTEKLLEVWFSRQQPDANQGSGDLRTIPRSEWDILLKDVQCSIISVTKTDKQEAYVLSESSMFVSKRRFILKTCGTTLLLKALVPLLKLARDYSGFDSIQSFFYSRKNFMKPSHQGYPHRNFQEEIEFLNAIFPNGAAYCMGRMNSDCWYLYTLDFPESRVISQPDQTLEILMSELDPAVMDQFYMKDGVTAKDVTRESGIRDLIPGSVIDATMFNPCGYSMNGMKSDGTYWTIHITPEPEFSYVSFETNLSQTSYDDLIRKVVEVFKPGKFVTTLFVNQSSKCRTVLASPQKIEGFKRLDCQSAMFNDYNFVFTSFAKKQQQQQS

[4] = target: T1, S-adenosylmethionine decarboxylase proenzyme (Homo sapiens); experiment: Activity of S-adenosyl-L-methionine decarboxylase in human DU145 cells assessed per ug DNA at 100 uM after 48 hrs in presence of serum amine oxidase inhibitor aminoguanidine (RVb = 73 +/- 1 pmol/h per ug DNA); format: cell-based; conditions: DU-145
[5] = target: T2, Ornithine decarboxylase (Homo sapiens) (UniProt P11926); experiment: Activity of ornithine decarboxylase in human DU145 cells assessed per ug DNA at 100 uM after 24 hrs in presence of serum amine oxidase inhibitor aminoguanidine (RVb = 29.3 +/- 1.4 pmol/h per ug DNA); format: cell-based; conditions: DU-145
T2 sequence (whole entry): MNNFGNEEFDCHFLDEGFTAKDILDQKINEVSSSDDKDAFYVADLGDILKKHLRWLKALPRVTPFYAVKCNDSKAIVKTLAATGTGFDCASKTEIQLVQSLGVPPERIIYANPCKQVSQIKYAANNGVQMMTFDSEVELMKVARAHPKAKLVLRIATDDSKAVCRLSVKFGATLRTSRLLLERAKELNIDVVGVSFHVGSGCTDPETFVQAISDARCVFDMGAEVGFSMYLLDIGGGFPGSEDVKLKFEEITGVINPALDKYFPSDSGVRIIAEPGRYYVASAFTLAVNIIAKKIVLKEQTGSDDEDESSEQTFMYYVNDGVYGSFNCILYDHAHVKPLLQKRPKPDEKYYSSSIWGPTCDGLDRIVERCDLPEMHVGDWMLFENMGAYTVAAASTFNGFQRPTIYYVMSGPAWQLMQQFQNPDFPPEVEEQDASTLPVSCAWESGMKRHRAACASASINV

[6] = target: Spermine oxidase (Homo sapiens) (UniProt Q9NWM0); experiment: Activity of spermine oxidase in human DU145 cells assessed per ug DNA at 100 uM after 72 hrs in presence of serum amine oxidase inhibitor aminoguanidine (RVb = 742 +/- 10 pmol/h per ug DNA); format: cell-based; conditions: DU-145
[7] = system: DU-145; experiment: Displacement of [14C]-spermidine from polyamine transporter in human DU145 cells at 1 to 100 uM after 10 mins; format: cell-based
[8] = target: Diamine acetyltransferase 1 (Homo sapiens) (UniProt P21673); experiment: Activity of SSAT in human DU145 cells assessed per ug DNA at 100 uM after 24 hrs in presence of serum amine oxidase inhibitor aminoguanidine (RVb = 59 +/- 1 pmol/h per ug DNA); format: cell-based; conditions: DU-145
[9] = target: Spermine oxidase (Homo sapiens) (UniProt Q9NWM0); experiment: Activity of spermine oxidase in human DU145 cells assessed per ug DNA at 100 uM after 48 hrs in presence of serum amine oxidase inhibitor aminoguanidine (RVb = 680 +/- 29 pmol/h per ug DNA); format: cell-based; conditions: DU-145
[10] = system: Nucleic Acid; experiment: Induction of SSAT alternative splicing in mouse primary fetal fibroblasts assessed as SSAT-X mRNA at 100 uM by qRT-PCR in presence of CHX relative to total SSAT mRNA
[11] = target: T2, Ornithine decarboxylase (Homo sapiens); experiment: Activity of ornithine decarboxylase in human DU145 cells assessed per ug DNA at 100 uM after 72 hrs in presence of serum amine oxidase inhibitor aminoguanidine (RVb = 7.5+/- 0.9 pmol/h per ug DNA); format: cell-based; conditions: DU-145
[12] = target: T2, Ornithine decarboxylase (Homo sapiens); experiment: Activity of ornithine decarboxylase in human DU145 cells assessed per ug DNA at 100 uM after 48 hrs in presence of serum amine oxidase inhibitor aminoguanidine (RVb = 17.7+/- 2.6 pmol/h per ug DNA); format: cell-based; conditions: DU-145
[13] = target: T1, S-adenosylmethionine decarboxylase proenzyme (Homo sapiens); experiment: Activity of S-adenosyl-L-methionine decarboxylase in human DU145 cells assessed per ug DNA at 100 uM after 24 hrs in presence of serum amine oxidase inhibitor aminoguanidine (RVb = 61 +/- 5 pmol/h per ug DNA); format: cell-based; conditions: DU-145
[14] = target: Peroxisomal N(1)-acetyl-spermine/spermidine oxidase (Homo sapiens) (UniProt Q6QHF9); experiment: Activity of APAO in human DU145 cells assessed per ug DNA at 100 uM after 72 hrs in presence of serum amine oxidase inhibitor aminoguanidine (RVb = 662 +/- 48 pmol/h per ug DNA); format: cell-based; conditions: DU-145
Chain of Peroxisomal N(1)-acetyl-spermine/spermidine oxidase (Homo sapiens) (Q6QHF9 whole entry): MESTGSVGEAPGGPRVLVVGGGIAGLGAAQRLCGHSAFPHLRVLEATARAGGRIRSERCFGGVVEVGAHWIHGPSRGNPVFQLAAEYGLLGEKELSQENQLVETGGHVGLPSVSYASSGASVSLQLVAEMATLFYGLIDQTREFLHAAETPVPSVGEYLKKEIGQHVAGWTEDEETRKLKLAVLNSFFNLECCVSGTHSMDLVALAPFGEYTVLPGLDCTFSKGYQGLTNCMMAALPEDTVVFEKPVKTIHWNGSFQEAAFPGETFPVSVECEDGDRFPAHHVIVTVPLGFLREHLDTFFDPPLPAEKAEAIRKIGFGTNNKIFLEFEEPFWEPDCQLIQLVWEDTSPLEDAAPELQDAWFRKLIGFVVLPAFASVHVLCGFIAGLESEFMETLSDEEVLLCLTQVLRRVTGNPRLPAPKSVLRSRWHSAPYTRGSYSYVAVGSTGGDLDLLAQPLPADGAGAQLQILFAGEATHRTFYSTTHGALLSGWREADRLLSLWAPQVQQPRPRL

[15] = target: Peroxisomal N(1)-acetyl-spermine/spermidine oxidase (Homo sapiens) (UniProt Q6QHF9); experiment: Activity of APAO in human DU145 cells assessed per ug DNA at 100 uM after 48 hrs in presence of serum amine oxidase inhibitor aminoguanidine (RVb = 699 +/- 21 pmol/h per ug DNA); format: cell-based; conditions: DU-145
[16] = target: Diamine acetyltransferase 1 (Homo sapiens) (UniProt P21673); experiment: Activity of SSAT in human DU145 cells assessed per ug DNA at 100 uM after 48 hrs in presence of serum amine oxidase inhibitor aminoguanidine (RVb = 58 pmol/h per ug DNA); format: cell-based; conditions: DU-145
[17] = target: Peroxisomal N(1)-acetyl-spermine/spermidine oxidase (Homo sapiens) (UniProt Q6QHF9); experiment: Activity of APAO in human DU145 cells assessed per ug DNA at 100 uM after 24 hrs in presence of serum amine oxidase inhibitor aminoguanidine (RVb = 540 +/- 61 pmol/h per ug DNA); format: cell-based; conditions: DU-145

Activity [1] [pmol/h]	Activity [2] [pmol/h]	Activity [3] [pmol/h]	Activity [4] [pmol/h]	Activity [5] [pmol/h]	Activity [6] [pmol/h]	Activity [8] [pmol/h]	Activity [9] [pmol/h]	Activity [10]	Activity [11] [pmol/h]	Activity [12] [pmol/h]	Activity [13] [pmol/h]	Activity [14] [pmol/h]	Activity [15] [pmol/h]	Activity [16] [pmol/h]	Activity [17] [pmol/h]	SMILES	Activity [7]
69	204	58	60	8.8	571	62	474	Active	5.4	9.3	53	775	693	59	528	CC(CCN)NCCCCN (stereo not given)	Active
66	362	75	72	4.3	754	67	695	Active	3.5	4.4	64	745	779	61	545	C[C@H](N)CCNCCCCN	Active
–	–	–	–	–	–	–	–	–	–	–	–	–	–	–	–	NCCCCNCCCN	Active
61	394	79	71	21.7	608	56	655	Active	9.1	16.6	67	732	719	59	562	CC(CN)CNCCCCN (stereo not given)	Active
–	–	–	–	–	–	–	–	Active	–	–	–	–	–	–	–	CCNCCCNCCCNCCCNCC	–
61	515	63	67	4.7	832	65	738	Active	3.8	5.5	53	737	770	62	562	CC(N)CCCNCCCN (stereo not given)	Active
